This note sets out measurements from US11384060B2, “Amide compounds and use thereof” (ALPHALA CO., LTD., priority 2017, dated 2022).

The target in one assay is T1, glucagon receptor (GCGR) (Homo sapiens, UniProt P47871).
T1 construct: expressed in transfected cells; host or cells: CHO-K1 cells overexpressing GCGR (membrane fractions)
Nature of the assay: I125-glucagon binding assay (competition, GCGR membrane fractions). Here is the method:
I^125-Glucagon Binding Assay
The binding affinity of each compound was evaluated by a competition assay with I^125-glucagon. GCGR membrane fractions were obtained from GCGR overexpressed CHO-K1 cells as a stock of 1 mg/ml concentration. To evaluate the IC50 of compounds binding to GCGR, GCGR membrane fractions were treated with compounds with a serial dilution. The membrane fractions were diluted to 7.5 microgram per well in 70 microliter assay buffer contained 50 mM Tris pH 7.4 and 0.5% (w/v) bovine serum albumin and added into 96 wells plate. The membrane fractions were then mixed with 10 microliter diluted compounds. After 5 minutes pre-incubation, 20 microliter I^125 labeled glucagon (Perkin Elmer) was added into each well at the final concentration of 0.0625 nM. The assay mixtures were incubated at 25° C. for 30 minutes and then transferred onto the Millipore MultiScreen GF/B Plate coated with 0.5% (w/v) Polyethyleneimine. The filter plate was washed with wash buffer contained 50 mM Tris pH 7.4 for 2 times, 300 microliter each time. The residual isotope was detected by Hidex CHAMELEON V micro-beta counter and the IC50 value of each compound binding to GCGR was calculated with non-linear regression.

Assay [1] concerns the target T2, glucagon receptor (GCGR) overexpressed CHO-K1 cells or human primary hepatocytes (Homo sapiens, UniProt P47871).
T2 construct: expressed in transfected cells; host or cells: GCGR overexpressed CHO-K1 cells or human primary hepatocytes (endogenous receptor)
Kind of assay: Glucagon cAMP inhibition assay (Cisbio cAMP Dynamic 2 HTRF). It counts as cell-based. Here is the method:
Glucagon cAMP Inhibition Assay
Downstream secondary messenger cAMP induced by glucagon was detected by Cisbio cAMP Dynamic 2 kit. Testing compounds were each prepared as a dimethyl sulfoxide (DMSO) solution at the concentration of 10 mM. To evaluate the potency of compounds in inhibiting the cAMP production, glucagon receptor (GCGR) overexpressed CHO-K1 cells or human primary hepatocytes were treated with compounds with a serial dilution. The cells were re-suspended in Hank's Balanced Salt solution (HBSS) contained 0.1% (w/v) bovine serum albumin and 800 nM 3-isobutyl-1-methylxanthine (IBMX) and seeded into low volume, 384 wells white plate. The diluted compounds were then added into the plate for 30 minutes pre-incubation where the final DMSO concentration was 1%. The cells were stimulated with glucagon at the concentration equaled to EC50 (an indicium of the concentration of a drug that gives half-maximal response) for 30 minutes at room temperature. After incubation, lysis buffer contain cAMP antibody and fluorescence acceptor were added into each well for additional 60 minutes incubation. Results were recorded by Molecular Devices SpectraMax Paradigm with the HTRF Detection Cartridges and the IC50 value of each compound in inhibiting the cAMP production was calculated with non-linear regression based on the amount of cAMP production.
(In general: In TR-FRET formats the signal depends on donor and acceptor labels being close together.)

Setting [2] is: competition with I125-glucagon 0.0625 nM, membrane fractions of GCGR overexpressed CHO-K1 cells.
Setting [3] is: inhibition of glucagon (EC50 concentration) induced cAMP production.

Like-named read-outs stand apart in the source and are kept apart here.

T2 sequence (P47871 26-477): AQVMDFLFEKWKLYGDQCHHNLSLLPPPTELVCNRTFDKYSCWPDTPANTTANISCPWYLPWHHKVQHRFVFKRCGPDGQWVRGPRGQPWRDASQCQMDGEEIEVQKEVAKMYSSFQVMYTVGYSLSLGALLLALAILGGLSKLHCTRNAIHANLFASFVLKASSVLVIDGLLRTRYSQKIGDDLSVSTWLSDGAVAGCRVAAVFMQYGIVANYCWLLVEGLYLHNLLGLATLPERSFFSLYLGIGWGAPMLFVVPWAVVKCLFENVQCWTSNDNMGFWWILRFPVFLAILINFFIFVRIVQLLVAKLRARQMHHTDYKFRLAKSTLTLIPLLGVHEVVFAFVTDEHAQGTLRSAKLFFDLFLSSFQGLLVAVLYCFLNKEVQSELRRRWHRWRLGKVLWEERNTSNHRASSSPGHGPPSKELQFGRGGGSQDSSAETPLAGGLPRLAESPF
T1 sequence (P47871 26-477): as above

Usually IC50 stands for the midpoint of a concentration-inhibition curve. High values mean lower potency, low ones higher potency. Regarding `CCN(c1ccc(C(=O)NCCC(=O)O)cc1)[C@H](COc1ccc(-c2cc3ccccc3o2)cc1)C(C)C` [Compound 6-2, (S)-3-(4-((1-(4-(benzofuran-2-yl)phenoxy)-3-methylbutan-2-yl)(ethyl)amino)benzamido)propanoic Acid], the half-maximal inhibitory concentration (IC50) at glucagon receptor (GCGR) (setting [2]) was found to be 0.645 µM. Besides, in assay [1] (setting [3]), the “IC50 cAMP” value amounted to 0.1643 µM.
Turning to `CC(C)[C@@H](COc1nnc(-c2cc3ccccc3o2)o1)Nc1ccc(C(=O)NCCC(=O)O)cc1` [Compound 22-12, (S)-3-(4-((1-((5-(benzofuran-2-yl)-1,3,4-oxadiazol-2-yl)oxy)-3-methylbutan-2-yl)amino)benzamido)propanoic Acid], the IC50 on glucagon receptor (GCGR) is more than 30 µM. Moreover, in assay [1], the “IC50 cAMP” value was more than 30 µM.
The compound `CCCCC[C@H](Cc1ccc(-c2cc3ccccc3o2)cc1)Nc1ccc(C(=O)NCCC(=O)O)cc1` [Compound 19-6, (R)-3-(4-((1-(4-(benzofuran-2-yl)phenyl)heptan-2-yl)amino)benzamido)propanoic Acid] showed an IC50 at glucagon receptor (GCGR) of 0.158 µM. For the same compound, the “IC50 cAMP” value in assay [1] came out at 0.632 µM.
With `CC(C)[C@@H](COc1ccc(-c2nc3ccccc3o2)cc1)Nc1ccc(C(=O)NCCC(=O)O)cc1` [Compound 1-48, (S)-3-(4-((1-(4-(benzo[d]oxazol-2-yl)phenoxy)-3-methylbutan-2-yl)amino)benzamido)propanoic Acid], at glucagon receptor (GCGR) (setting [2]), the concentration for half-maximal inhibition (IC50) was found to be 0.138 µM. Moreover, in assay [1] (setting [3]), the “IC50 cAMP” value stood at 0.546 µM.
`CCCOC[C@H](Cc1ccc(-c2ccc(C(F)(F)F)cc2)cc1)Nc1ccc(C(=O)NCCC(=O)O)cc1` [Compound 19-22, (S)-3-(4-((1-propoxy-3-(4′-(trifluoromethyl)-[1,1′-biphenyl]-4-yl)propan-2-yl)amino)benzamido)propanoic Acid] returned a half-inhibitory concentration (IC50) at glucagon receptor (GCGR) of 0.745 µM. Also, the “IC50 cAMP” value in assay [1] is 0.9865 µM.
In the same order, the values of `Cc1nc(OC[C@H](CC(C)C)Nc2ccc(C(=O)NCCC(=O)O)cc2)ccc1-c1ccc(C(F)(F)F)cc1Cl` [Compound 18-7, (S)-3-(4-((1-((5-(2-chloro-4-(trifluoromethyl)phenyl)-6-methylpyridin-2-)oxy)-4-methylpentan-2-yl)amino)benzamido)propanoic Acid] are 0.074 µM and 0.08 µM.
In the same order, the values of `CC(C)[C@@H](COc1ccc(-c2cc3ccccc3o2)cn1)Nc1ccc(C(=O)NCCC(=O)O)cc1` [Compound 15-3, (S)-3-(4-((1-((5-(benzofuran-2-yl)pyridin-2-yl)oxy)-3-methylbutan-2-yl)amino)benzamido)propanoic Acid] are 0.051 µM and 0.111 µM.
`CCOC(=O)CCNC(=O)c1ccc(N[C@@H](COc2ccc(-c3nc4ccccc4o3)cc2)C(C)C)cc1` [Compound 1-53]: the half-maximal inhibitory concentration (IC50) on glucagon receptor (GCGR) (setting [2]) amounted to 24.5 µM. Besides, in assay [1] (setting [3]), the “IC50 cAMP” value was found to be 0.09 µM.
Consider `CCCC[C@@H](COc1ccc(-c2ccc(Cl)cc2Cl)nc1)Nc1ccc(C(=O)NCCC(=O)O)cc1` [Compound 10-7, (S)-3-(4-((1-((6-(2,4-dichlorophenyl)pyridin-3-yl)oxy)hexan-2-yl)amino)benzamido)propanoic Acid], for which, at glucagon receptor (GCGR) (setting [2]), the 50% inhibitory concentration (IC50) is 0.319 µM. For the same compound, in assay [1] (setting [3]), the “IC50 cAMP” value amounted to 0.732 µM.
The like results for `CC(C)[C@@H](COc1ccc(-c2ccc(C(F)(F)F)cc2Cl)c(F)c1)Nc1ccc(C(=O)NCCC(=O)O)cc1` [Compound 8-5, (S)-3-(4-((1-((2′-chloro-2-fluoro-4′-(trifluoromethyl)-[1,1′-biphenyl]-4-yl)oxy)-3-methylbutan-2-yl)amino)benzamido)propanoic Acid] were, in that order, 0.075 µM and 0.085 µM.
As for `CCOC(=O)CCNC(=O)c1ccc(N[C@H](C(=O)Nc2ccc(-c3cc4ccccc4o3)cc2)[C@@H](C)CC)cc1` [Compound 23-30], the 50% inhibitory concentration (IC50) at glucagon receptor (GCGR) stood at 1.48 µM. For the same compound, the “IC50 cAMP” value in assay [1] is 0.0252 µM.
At glucagon receptor (GCGR) (setting [2]), `CCCC[C@@H](COc1ccc(-c2ccc(Cl)cc2Cl)c(Cl)c1)Nc1ccc(C(=O)NCCC(=O)O)cc1` [Compound 3-12, (S)-3-(4-((1-((2,2′,4′-trichloro-[1,1′-biphenyl]-4-yl)oxy)hexan-2-yl)amino)benzamido)propanoic Acid] yielded an IC50 of 0.03 µM. The “IC50 cAMP” value in assay [1] (setting [3]) was 0.0281 µM.
At glucagon receptor (GCGR), `CC[C@H](C)[C@@H](COc1ccc(-c2ccc(F)cc2F)cn1)Nc1ccc(C(=O)NCCC(=O)O)cc1` [Compound 15-20, 3-(4-(((2S,3S)-1-((5-(2,4-difluorophenyl)pyridin-2-yl)oxy)-3-methylpentan-2-yl)amino)benzamido)propanoic Acid] yielded a half-inhibitory concentration (IC50) of 0.382 µM. Further, the “IC50 cAMP” value in assay [1] is 1.255 µM.
The like results for `CC(C)C[C@H](Nc1ccc(C(=O)NCCC(=O)O)cc1)C(=O)Nc1ccc(-c2ccc(Cl)cc2Cl)cc1` [Compound 23-1, (S)-3-(4-((1-((2′,4′-dichloro-[1,1′-biphenyl]-4-yl)amino)-4-methyl-1-oxopentan-2-yl)amino)benzamido)propanoic Acid] were, in that order, 0.087 µM and 3.6 µM.
On to `CC(C)C[C@@H](COc1cnn(-c2ccc(F)cc2F)c1)Nc1ccc(C(=O)NCCC(=O)O)cc1` [Compound 9-6, (S)-3-(4-((1-((1-(2,4-difluorophenyl)-1H-pyrazol-4-yl)oxy)-4-methylpentan-2-yl)amino)benzamido)propanoic Acid], for which the half-maximal inhibitory concentration (IC50) on glucagon receptor (GCGR) (setting [2]) was found to be 3.65 µM. The “IC50 cAMP” value in assay [1] (setting [3]) was determined as 5.577 µM.
In the same order, the values of `CC(C)[C@@H](COc1ccc(-c2nnc(C(F)(F)F)o2)cc1)Nc1ccc(C(=O)NCCC(=O)O)cc1` [Compound 1-43, 3-(4-((3-methyl-1-(4-(5-(trifluoromethyl)-1,3,4-oxadiazol-2-yl)phenoxy)butan-2-yl)amino)benzamido)propanoic Acid] are 0.583 µM and more than 30 µM.
`O=C(O)CCNC(=O)c1ccc(N[C@@H](Cc2ccc3ccccc3c2)C(=O)Nc2ccc(-c3cc4ccccc4o3)cc2)cc1` [Compound 23-22, (S)-3-(4-((1-((4-(benzofuran-2-yl)phenyl)amino)-3-(naphthalen-2-yl)-1-oxopropan-2-yl)amino)benzamido)propanoic Acid]: the 50% inhibitory concentration (IC50) at glucagon receptor (GCGR) (uM) was more than 10 µM. Besides, in assay [1], the “IC50 cAMP” value came out at 32.1 µM.
The compound `O=C(O)CCNC(=O)c1ccc(NC(Cc2ccccc2)C(=O)Nc2ccc(C(F)(F)F)cc2)cc1` (stereo in doubt) [Compound 24-4, (S)-3-(4-((1-oxo-3-phenyl-1-((4-(trifluoromethyl)phenyl)amino)propan-2-yl)amino)benzamido)propanoic Acid] came in with an IC50 on glucagon receptor (GCGR) of 6.02 µM. Further, in assay [1] (uM), the “IC50 cAMP” value is more than 10 µM.
In the case of `CC(C)[C@@H](COc1ccc(-c2cc(Cl)cc(Cl)c2)c(F)c1)Nc1ccc(C(=O)NCCC(=O)O)cc1` [Compound 8-12, (S)-3-(4-((1-((3′,5′-dichloro-2-fluoro-[1,1′-biphenyl]-4-yl)oxy)-3-methylbutan-2-yl)amino)benzamido)propanoic Acid], the concentration for half-maximal inhibition (IC50) at glucagon receptor (GCGR) (setting [2]) was 0.227 µM. For the same compound, the “IC50 cAMP” value in assay [1] (setting [3]) was 1.243 µM.
The compound `CC(C)[C@@H](COc1ccc(-c2ccc(C(F)(F)F)cc2Cl)c(Cl)c1)Nc1ccc(C(=O)NCc2nnn[nH]2)cc1` [Compound 3-3, (S)—N-((1H-tetrazol-5-yl)methyl)-4-((1-((2,2′-dichloro-4′-(trifluoromethyl)-[1,1′-biphenyl]-4-yl)oxy)-3-methylbutan-2-yl)amino)benzamide] registered an IC50 at glucagon receptor (GCGR) (setting [2]) of 0.086 µM. Besides, in assay [1] (setting [3]), the “IC50 cAMP” value was 1.25 µM.
